Data taken from patent publication US20140255341A1, “Tumor Selective Chemokine Modulation” (priority 2011, published 2014).

Tests used:
[1] = test system: melanoma tissue; settings: melanoma tissue ex vivo, increasing concentrations of melphalan
Experimental: FIG. 13. […] Tumor biopsies were cultured ex vivo in the presence of increasing concentrations of melphalan in the absence or presence of the triple combination (CAP) of the Celecoxib, IFNα and poly-I:C. Secretion levels of CC22 and CXCL10 were measured by ELISAs.

[2] = test system: liver-metastatic colorectal cancer tissues versus marginal liver tissues; assay: Chemokine production in matched liver-metastatic tumor and marginal liver tissues (ELISA, Taqman); type: cell-based, human; settings: tumor tissues, NF-κB inhibitor at 20 μM
Experimental: (§1) FIG. 9. Selective induction of CXCL10 and CCL5 in liver metastases compared to normal liver tissues: role of NF-κB. Matched samples of marginal liver tissues and liver-metastatic colorectal cancer tissues (3 biopsies in 1 ml in 24 well plate), were cultured for 24 hrs either untreated or treated with IFNα+poly-I:C+indomethacin and (A) analyzed for CCL5 and CXCL10 expression by Taqman. […] The supernatants were analyzed for CCL5 production by ELISA (see matched CXCL10 data in FIG. 4). (C) CAY10470 (20 μM) effects on liver glycogen phosphorylase mRNA expression in matched marginal liver tissue and liver-metastatic colorectal cancer.
Using matched tissue samples from 10 patients with metastatic colon cancer, we compared the responsiveness to the chemokine-modulating regimen between liver-metastatic tumor tissues and marginal tissues. […] This increased responsiveness of tumors compared to marginal tissues was not due to decreased survival of the marginal tissues, as determined by undisturbed expression levels of glycogen phosphorylase (FIG. 9C).

[3] = test system: marginal liver tissue and liver-metastatic colorectal cancer; assay: Glycogen phosphorylase mRNA expression as check of tissue survival; type: cell-based, human; settings: at 20 μM
Experimental: as §1
CAY10470, used in these experiments (at 20 μM), was non-toxic, as shown by similar expression of glycogen phosphorylase mRNA in untreated and treated tissues (FIG. 9C).

[4] = test system: colorectal cancer tumor tissues; assay: Ex vivo tumor/tissue explant culture, chemokine ELISA; type: cell-based, human; settings: for CCL5 expression / production / CXCL10 expression / production: tumor tissues ex vivo, 48 hours, ELISA
Experimental: FIG. 6. […] (A) Fresh tumor samples from 11 patients with metastatic colorectal cancer were untreated or treated with IFNα and poly-I:C either individually or in combination for 48 hours. The release of CCL5 and CXCL10 into culture media was analyzed by ELISA. Numbers indicate the prevalence of tumors with each chemokine pattern (respective patterns A, B or C). (B) ELISA analysis of CCL5, CCL22 and CXCL10 in tumors untreated or treated with IFNα+pI:C, with or without indomethacin. (C) Heterogeneous response of different tumor lesions from the same patient (CCL5 and CXCL10 production) to the individual components of the chemokine-modulating cocktail. (D) Indomethacin and celecoxib enhance the IFNα/poly-I:C-induced Teff-attracting chemokine expression, but suppress Treg-attracting chemokine expression in colorectal cancer lesions. All cultures were for 48 hr. Combined data from the tumors of 3 different patients (n=3).
FIG. 7. […] (A) In-situ hybridization for respective chemokine mRNA (black grains) in tumor biopsies which were either left untreated or treated with the combination of indomethacin, IFNa and poly-I:C (IAP). (B) ELISA analysis of the chemokine contents in the supernatants of 48 hour-cultured tumor tissues (untreated or treated) from 10 different patients.
In order to test the feasibility of using these factors to manipulate the complex microenvironment of whole tumor tissues, involving all the above cell types and their interactions, we used an ex vivo tumor/tissue explant culture system previously developed to study migration of DCs. This system allowed us to avoid nonspecific activation of the chemokine-producing cells during tumor dissociation.

[5] = test system: fibroblasts; assay: Chemokine production by fibroblasts, ELISA of 48 hr. cultures; type: cell-based
Text: FIG. 5. Interplay between COX inhibitor indomethacin, IFNα and poly-I:C in the induction of a desirable patterns of chemokine expression in isolated cell cultures. (A) Dose-dependent impact of IFNa and poly-I:C on the production of Teff-, and Treg-attracting chemokines by in vitro generated macrophages (see M&M) and in fibroblasts (obtained from Cascade Biological). Data from one representative experiment of three. (B) Effects of indomethacin on Teff-, and Treg-attracting chemokines produced by macrophages (N=3) by ELISA analysis. The concentrations of chemokines in 48 hr. cultures were analyzed by ELISA.
(§2) In order to test the possibility of correcting the chemokine environment in the tumors with low ratios of Teff- to Treg-attracting chemokines, we tested in pilot studies the feasibility of modulating their production using different combinations of IFNα, indomethacin (COX1/2 inhibitor) and poly-I:C in individual populations of tumor-relevant cells (known to infiltrate tumors), such as macrophages, or fibroblasts.

[6] = test system: macrophages; assay: Chemokine production by in vitro generated macrophages, ELISA of 48 hr. cultures; type: cell-based
Experimental: as §2, with “FIG. 5. […] Data from one representative experiment of three. […] The concentrations of chemokines in 48 hr. cultures were analyzed by ELISA. […] In” for “In”

[7] = whole tumor tissues, COX inhibitor added to IFNα and poly-I:C

Compound: N[C@@H](Cc1ccc(N(CCCl)CCCl)cc1)C(=O)O [melphalan]
- ratio between Treg-attracting and Teff-attracting chemokines (CCL22/CXCL10) [1]: undesirable elevation

Compound: Nc1ccc2ncnc(NCCc3ccc(Oc4ccccc4)cc3)c2c1 [CAY10470]
- CCL5 up-regulation by the chemokine-modulating regimen [2]: blocked
- CXCL10 induction by IFNα/poly-I:C/indomethacin [2]: completely abrogated
- toxicity (expression of glycogen phosphorylase mRNA in untreated and treated tissues) [3]: non-toxic

Compound: polyinosinic-polycytidylic acid [poly-I:C]
- CCL5 expression / production [4]: variable chemokine expression
- CXCL10 expression / production [4]: variable chemokine expression

Compound: IFNα
- production of CCL22 [5]: strong suppressive effect
- production of CCL22 [6]: strong suppressive effect
- CCL5 expression / production [4]: variable chemokine expression
- CXCL10 expression / production [4]: variable chemokine expression

Compound: COc1ccc2c(c1)c(CC(=O)O)c(C)n2C(=O)c1ccc(Cl)cc1 [indomethacin]
- production of CCL22 [6]: suppression of CCL22 production
- effects of IFNα and poly-I:C on Teff- and Treg-attracting chemokines (CCL5, CXCL10 induction, CCL22 suppression) ([6]; indomethacin added): further potentiated
- IFNα/poly-I:C-induced Teff-attracting chemokine expression ([4]; colorectal cancer lesions, 48 hr, tumors of 3 patients): enhance
- Treg-attracting chemokine expression ([4]; colorectal cancer lesions, with IFNα/poly-I:C, 48 hr, tumors of 3 patients): suppress
- CCL22 levels [4, 7]: reduced
- production of CCL5 induced by the combination IFNα and poly-I:C [4, 7]: further enhanced
- production of CXCL10 induced by the combination IFNα and poly-I:C [4, 7]: further enhanced
